Each structure is given as a SMILES string.

In the data set the test system is C. albicans #5. In kind it is in vivo. Here is the method: Five-week-old female CD-1 mice were purchased from Charles River Laboratories. Mice were placed in cages in groups of five. To immunosuppress the mice and allow for the establishment of mucosal infection, 5-FU was given intravenously once every 7 days, starting on day-2. Antibiotics were given in the drinking water in autoclaved bottles to reduce potential confounding secondary bacterial infections. Gentamycin at 0.2 mg/ml, clindamycin at 1 mg/ml, vancomycin 1 mg/ml were added to sterile drinking water. Bottles and drinking water were changed every day. Imipenem is given at 5 mg/mouse (IP, QD). Antibiotics were begun on day-3.
C. albicans #5 was transferred from storage at −80° C. and streaked for isolation on Sabouraud Dextrose Agar plates with chloramphenicol. The plates were incubated at 35° C. for 48 hours. The organisms were inoculated in sterile bottles each containing 100 ml of SAAMF broth and incubated for 48 hours at 35° C. on a gyratory shaker. C. albicans was harvested by transferring the broth culture to sterile 50 ml centrifuge tubes and centrifuged for 15 minutes at 2000 RPM. The cells were washed once with saline and then suspended in saline. The cells were counted using a hemacytometer. Inoculum dilutions were made in sterile water. The final inoculum was 2×10^8 cells/ml of drinking sterile water plus antibiotics. The inoculum viability determined by plating serial dilutions on SDA plates with chloramphenicol was 1.85×10^8 cells per ml. Plates were incubated overnight at 35° C. for verification count of the inoculum.
In the morning before the preparation of the inoculum the drinking bottles were removed 8 hours prior to replacement with the inoculum suspension of C. albicans. The mice were allowed to drink from this suspension for 24 hours at which time the inoculum suspension was removed and replaced with drinking water containing antibiotics (day 0).
Beginning on day 4 postinfection, mice were untreated or treated with either, Surfacine D™ diluent (undiluted), 3% Surfacine D, PEG dilutent or 1% clotrimazole.
PEG 400, 1% clotrimazole in PEG400, or given no treatment. Treatments were done for 10 consecutive days and were given twice daily. Treatments were done by dipping a sterile calcium alginate swab into the solution and then swabbing the oral cavity of the mouse to ensure coverage with the solution. It was not necessary to anesthetize the animals to perform the treatments. Treatment ended on day 13 postinfection.
On day 15 postinfection all surviving mice were euthanatized using CO2 gas. The tongue of each mouse was swabbed with sterile calcium alginate swab and the swab placed in 0.4 ml of 1×PBS. The swab in PBS was vigorously mixed with a vortex mixer to dissolve the alginate and release the organisms into suspension, and two 10-fold dilutions were made and plated in duplicate on SDA without chloramphenicol.
Survival was analyzed using a log rank test and comparative CFU between groups was analyzed using a Mann-Whitney U test. A log10 value of 6.5 was assigned as CFU for data points missing due to the death of the animal. This value is arbitrarily set to be higher than any burden recovered from surviving mice and assures that death is considered as a worse outcome than is survival regardless of burden.

As for `Clc1ccccc1C(c1ccccc1)(c1ccccc1)n1ccnc1` [1% clotrimazole, clotrimazole], under “CFU recovered from the tongue, day 15 postinfection”, the “reduction in CFU in comparison with the untreated controls” value is on record as roughly 30 fold. The “ranking among the treatments” value (in vivo) was “most effective of the treatments”. Besides, the “behavioral observations during treatments” value (in vivo, po) is on record as “did not exhibit these behaviors or symptoms”. In addition, where the note is “mice, oral swab twice daily for 10 days, to day 15 postinfection”, the deaths result is “one”. The “gross pathological appearance of the tongue mucosal surface at necropsy” value (surviving mice, day 15 postinfection) is “normal mucosal surface appearance”.

The values above are taken from patent US20050249818A1, “Polycationic antimicrobial therapeutic” (priority 2004, published 2005).
